Experimental findings from patent US20260217647A1, “CANCER CELL GROWTH INHIBITING COMPOSITION AND PROCESSED FOOD” (HAGIHARA FARM PRODUCTION INSTITUTE CO., LTD., priority 2023, published 2026) are described below.

Usually IC50 stands for the midpoint of a concentration-inhibition curve. The low end stands for greater potency, the high end for weaker potency.

The test concerns Jurkat cells. The experiment in a line: Growth-inhibiting activity on human leukemia T cell line Jurkat cells (viable cell counting reagent SF, 72 h). In kind it is cell-based. To be noted: 72 h incubation, cell viability by absorbance A450-A630. Here is the method: The cancer cell growth-inhibiting activity of each of the above samples was evaluated using the human leukemia T cell line, Jurkat.
A suspension of Jurkat cells was prepared at 2×10^5 cells/mL, and 50 μL of the suspension was seeded into each well of a 96-well plate. The evaluation sample was dissolved in DMSO and subsequently diluted 500 fold with culture medium. Immediately after dilution, 50 μL of the resulting solution was added to each well to initiate treatment. After incubation for 72 h, 10 μL of the viable cell counting reagent SF was added to each well. Following incubation for 2 to 3 hours to allow color development, absorbance at 450 nm and 630 nm was measured using a microplate reader. Cell viability was then calculated using the following formula (F1).
As, Ab, and Ac are defined as follows. • As: absorbance of evaluation well • Ab: absorbance of negative control well • Ac: absorbance of control well
The respective “absorbances” in the above formula were calculated by subtracting the absorbance at 630 nm (A630) from the absorbance at 450 nm (A450) and was represented by “A450-A630”. Furthermore, to calculate IC50, a linear approximation was performed on a graph showing the logarithmic values of the two concentrations that most narrowly bracketed a cell viability of 50%.

`CSC/C=C(\C)CCC[C@H](C)CCC[C@H](C)CCCC(C)C` [PT37] had a half-maximal inhibitory concentration (IC50) greater than 100 µM. In addition, the IC50 (Homo sapiens, Jurkat, 72 h) is no less than 100 µM.
